Laboratory results from publication PMC9090415, “Discovery of small molecule inhibitors of Plasmodium falciparum apicoplast DNA polymerase” (Journal of Enzyme Inhibition and Medicinal Chemistry, 2022).

Molecular target: P. falciparum apicoplast DNA polymerase (Pf-apPOL) (Plasmodium falciparum, UniProt Q8ILY1)
Assay: Fluorescence-based high-throughput DNA polymerase assay (molecular beacon), primary screen and dose-response
Format: biochemical
Experimental: The HT assay employs a molecular beacon, a stem-loop DNA template with a Cy3 dye and the Black Hole Quencher on the 3′ and 5′ ends of the DNA, respectively. Pf-apPOL concentration is based on a calculated absorptivity of ε280 = 56750 M^−1 cm^−1. Reactions were carried out at 25 °C, using Corning 3575 […] (well-volume, 20 µL). Assays testing for compound inhibition composed of reaction buffer (pH 7.9 in 50 mM potassium acetate, 20 mM Tris-acetate and 10 mM magnesium acetate), Pf-apPOL (20 nM), DNA substrate (20 nM), dNTPs (6 µM), and compound (10 µM in DMSO). The DNA and nucleotide substrates (dNTPs) were at concentrations of 20 nM and 6 µM, respectively, in the assay. Pf-apPOL was incubated in the reaction buffer with dNTPs and the compound of interest (10 µM, in the assay) at 25 °C for 10 min. The DNA substrate was then added and the reaction was allowed to proceed for 90 min at 25 °C.
Each assay plate contained 16 negative controls (no Pf-apPOL, DMSO present) and 16 positive controls (Pf-apPOL present, no DMSO). The fluorescence of each well was determined using a BioTek Synergy Neo fluorescence plate reader using excitation and emission wavelengths of 555 and 570 nm, respectively.
In the above, Min is the average of fluorescence emission of the negative controls (substrate only), Max the average fluorescence emission from the positive controls (enzyme + substrate), and Test the emission from the assays in the presence of compounds (enzyme + compound + substrates). […] […] The IC50 of each compound was determined using Equation (2): (2) IC50= Vmax/(1+ (I/IC50)^n)
In the above, n measures cooperativity, with n > 1 indicating synergistic binding of more than a single molecule of the compound.
To identify apPOL inhibitors we utilised our previously developed high-throughput DNA polymerase assay. The HT assay is based on a molecular beacon DNA template that forms a stem-loop with a Cy3 dye and the Black Hole Quencher on the 3′ and 5′ ends of the DNA, respectively. DNA polymerase activity extends an annealed primer through the stem region, displacing the fluorophore from the quencher, thereby increasing its fluorescence (Figure 1(A)). The assay accurately recapitulates the kinetic behaviour of apPOL, as measured through more conventional low-throughput gel-based assays. The Z′ factor for the assay described here was 0.9 across all plates (data not shown).
Figure 1. High-throughput screening. (A) The fluorescent-based DNA polymerase assay used to screen the compound libraries. The DNA template strand is a hairpin loop with a primer annealed to the loop. The 3’ end of the primer is 11 bases away from the 6 bp duplex. Strand displacement activity of the DNA polymerase separates the Cy3 dye from the Black hole quencher leading to an increase in fluorescent signal. (B) The high-throughput assay workflow. The DNA polymerase is incubated with […] compound for 10 min prior to addition of the hairpin substrate. The reaction is quenched at 3 different time points and the fluorescent signal is measured and % inhibition is determined using the provided equation.

Sequence of P. falciparum apicoplast DNA polymerase (Pf-apPOL) (Q8ILY1 entry or part of it): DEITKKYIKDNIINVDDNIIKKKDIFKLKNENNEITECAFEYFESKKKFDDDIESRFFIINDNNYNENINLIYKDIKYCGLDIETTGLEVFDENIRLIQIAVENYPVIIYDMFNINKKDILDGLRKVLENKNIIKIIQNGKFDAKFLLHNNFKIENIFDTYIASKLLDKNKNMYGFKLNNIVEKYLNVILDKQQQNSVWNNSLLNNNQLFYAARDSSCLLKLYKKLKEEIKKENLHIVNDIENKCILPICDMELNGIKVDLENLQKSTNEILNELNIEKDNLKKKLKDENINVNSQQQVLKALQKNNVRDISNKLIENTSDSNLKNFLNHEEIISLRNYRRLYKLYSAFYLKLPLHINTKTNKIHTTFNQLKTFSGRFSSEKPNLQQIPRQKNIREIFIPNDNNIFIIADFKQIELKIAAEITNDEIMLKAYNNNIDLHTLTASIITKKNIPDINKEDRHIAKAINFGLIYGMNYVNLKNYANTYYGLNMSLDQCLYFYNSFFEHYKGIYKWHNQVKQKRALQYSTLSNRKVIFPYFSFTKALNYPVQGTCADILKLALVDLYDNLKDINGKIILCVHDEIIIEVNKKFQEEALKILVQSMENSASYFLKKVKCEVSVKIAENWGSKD

O=C(NNC(=O)C(F)(F)Sc1ccccc1)c1ccsc1 [Molecule 68, O=C(C(Sc1ccccc1)(F)F)NNC(=O)c1cscc1]
DNA Pol ('DNA Pol'; screening value, unit not given; 90 min, 10 µM): 82
% inhibition Apo pol 10' (DRC-1; 10'; concentration 2.5): 18.9007%
% inhibition Apo pol 10' (DRC-1; 10'; concentration 5): 22.6096%
% inhibition Apo pol 10' (DRC-1; 10'; concentration 10): 35.002%
% inhibition Apo pol 10' (DRC-1; 10'; concentration 20): 47.6682%
% inhibition Apo pol 10' (DRC-1; 10'; concentration 40): 67.1681%
% inhibition Apo pol 10' (DRC-1; 10'; concentration 80): 81.7014%
% inhibition Apol 90' (DRC-1; 90'; concentration 2.5): -2.054%
% inhibition Apol 90' (DRC-1; 90'; concentration 5): 4.132%
% inhibition Apol 90' (DRC-1; 90'; concentration 10): 13.2706%
% inhibition Apol 90' (DRC-1; 90'; concentration 20): 25.6835%
% inhibition Apol 90' (DRC-1; 90'; concentration 40): 44.8257%
% inhibition Apol 90' (DRC-1; 90'; concentration 80): 64.9924%
% inhibition apPOL 180' (DRC-1; 180'; concentration 2.5): -9.701%
% inhibition apPOL 180' (DRC-1; 180'; concentration 5): -6.4745%
% inhibition apPOL 180' (DRC-1; 180'; concentration 10): 2.016%
% inhibition apPOL 180' (DRC-1; 180'; concentration 20): 13.4425%
% inhibition apPOL 180' (DRC-1; 180'; concentration 40): 32.4259%
% inhibition apPOL 180' (DRC-1; 180'; concentration 80): 53.4351%
% inhibition Apo pol 5' (DRC-2, 5', concentration 2.5): 9%
% inhibition Apo pol 5' (DRC-2, 5', concentration 5): 10%
% inhibition Apo pol 5' (DRC-2, 5', concentration 10): 23%
% inhibition Apo pol 5' (DRC-2, 5', concentration 20): 31%
% inhibition Apo pol 5' (DRC-2, 5', concentration 40): 47%
% inhibition Apo pol 5' (DRC-2, 5', concentration 80): 58%
% inhibition Apol 40' (DRC-2, 40', concentration 2.5): 5%
% inhibition Apol 40' (DRC-2, 40', concentration 5): 7%
% inhibition Apol 40' (DRC-2, 40', concentration 10): 19%
% inhibition Apol 40' (DRC-2, 40', concentration 20): 27%
% inhibition Apol 40' (DRC-2, 40', concentration 40): 48%
% inhibition Apol 40' (DRC-2, 40', concentration 80): 64%
% inhibition ApPOL 90' (DRC-2, 90', concentration 2.5): 2.82%
% inhibition ApPOL 90' (DRC-2, 90', concentration 5): 2.82%
% inhibition ApPOL 90' (DRC-2, 90', concentration 10): 15%
% inhibition ApPOL 90' (DRC-2, 90', concentration 20): 22%
% inhibition ApPOL 90' (DRC-2, 90', concentration 40): 44%
% inhibition ApPOL 90' (DRC-2, 90', concentration 80): 62%
% inhibition apPOL 180' (DRC-2, 180', concentration 2.5): -3.39%
% inhibition apPOL 180' (DRC-2, 180', concentration 5): -3.25%
% inhibition apPOL 180' (DRC-2, 180', concentration 10): 5%
% inhibition apPOL 180' (DRC-2, 180', concentration 20): 12%
% inhibition apPOL 180' (DRC-2, 180', concentration 40): 32%
% inhibition apPOL 180' (DRC-2, 180', concentration 80): 55%
% inhibition Apol 40' (conc 2.5 (unit not given); 40'; DRC-2): 5%
% inhibition ApPOL 90' (conc 2.5 (unit not given); 90'; DRC-2): 2.82%
% inhibition ApPOL 90' (conc 5 (unit not given); 90'; DRC-2): 2.82%
% inhibition apPOL 180' (conc 10 (unit not given); 180'; DRC-2): 5%
DNA Pol (primary screen hit value, DNA Pol (186 hits); 90 min, 10 µM): 82

Nc1ncnc(NC2CCCCC2)c1[N+](=O)[O-] [KU0193018]
% inhibition Apo pol 10' (DRC-1; concentration 2.5; 10'): -4.033%
% inhibition Apol 90' (DRC-1; concentration 2.5; 90'): 1.71%
% inhibition apPOL 180' (DRC-1; concentration 2.5; 180'): 7.961%
% inhibition Apo pol 10' (DRC-1; concentration 5; 10'): -4.7638%
% inhibition Apol 90' (DRC-1; concentration 5; 90'): 3.18%
% inhibition apPOL 180' (DRC-1; concentration 5; 180'): 11.4393%
% inhibition Apo pol 10' (DRC-1; concentration 10; 10'): 7.571%
% inhibition Apol 90' (DRC-1; concentration 10; 90'): 18.3925%
% inhibition apPOL 180' (DRC-1; concentration 10; 180'): 32.1574%
% inhibition Apo pol 10' (DRC-1; concentration 20; 10'): 20.9545%
% inhibition Apol 90' (DRC-1; concentration 20; 90'): 38.4286%
% inhibition apPOL 180' (DRC-1; concentration 20; 180'): 56.6751%
% inhibition Apo pol 10' (DRC-1; concentration 40; 10'): 53.9116%
% inhibition Apol 90' (DRC-1; concentration 40; 90'): 70.3163%
% inhibition apPOL 180' (DRC-1; concentration 40; 180'): 83.6838%
% inhibition Apo pol 10' (DRC-1; concentration 80 (unit not given); 10'): 70.2616%
% inhibition Apol 90' (DRC-1; concentration 80; 90'): 82.4548%
% inhibition apPOL 180' (DRC-1; concentration 80; 180'): 91.4179%
% inhibition Apo pol 5' (DRC-2; concentration 2.5; 5'): -2.47%
% inhibition Apol 40' (DRC-2; concentration 2.5; 40'): -1.57%
% inhibition ApPOL 90' (DRC-2; concentration 2.5; 90'): -2.42%
% inhibition apPOL 180' (DRC-2; concentration 2.5; 180'): -6.58%
% inhibition Apo pol 5' (DRC-2; concentration 5; 5'): 4%
% inhibition Apol 40' (DRC-2; concentration 5; 40'): 3.32%
% inhibition ApPOL 90' (DRC-2; concentration 5; 90'): 2.51%
% inhibition apPOL 180' (DRC-2; concentration 5; 180'): -3.38%
% inhibition Apo pol 5' (DRC-2; concentration 10; 5'): 20%
% inhibition Apol 40' (DRC-2; concentration 10; 40'): 19%
% inhibition ApPOL 90' (DRC-2; concentration 10; 90'): 15%
% inhibition apPOL 180' (DRC-2; concentration 10; 180'): 6%
% inhibition Apo pol 5' (DRC-2; concentration 20; 5'): 37%
% inhibition Apol 40' (DRC-2; concentration 20; 40'): 42%
% inhibition ApPOL 90' (DRC-2; concentration 20; 90'): 38%
% inhibition apPOL 180' (DRC-2; concentration 20; 180'): 26%
% inhibition Apo pol 5' (DRC-2; concentration 40; 5'): 50%
% inhibition Apol 40' (DRC-2; concentration 40; 40'): 64%
% inhibition ApPOL 90' (DRC-2; concentration 40; 90'): 63%
% inhibition apPOL 180' (DRC-2; concentration 40; 180'): 55%
% inhibition Apo pol 5' (DRC-2; concentration 80; 5'): 52%
% inhibition Apol 40' (DRC-2; concentration 80; 40'): 71%
% inhibition ApPOL 90' (DRC-2; concentration 80; 90'): 72%
% inhibition apPOL 180' (DRC-2; concentration 80; 180'): 69%
DNA Pol (primary screen value of the 186 hits; unit not given; 90 min, 10 µM): 25
DNA Pol (primary screen value; head prints only 'DNA Pol'; 90 min, 10 µM): 25
